Experimental data from patent publication US6303630A, “Diarylsulfone non-nucleoside reverse transcriptase inhibitors of human immunodeficiency virus” (University of the Sciences in Philadelphia, priority 2000, dated 2001).
Where two headings read alike, the source gives them in different places.

Tests used:
[1] = tested on: HIV-1; experiment: NCI in vitro anti-HIV drug screen: XTT-formazan assay, protection of T4 lymphocytes (CEM) from HIV-1 cytopathic effects; format: cell-based, human immunodeficiency virus (HIV-1); conditions: for EC50: 144 h, HIV-1 infected CEM cells, 6 days, XTT, approximate values, read-out: EC50 (50% effective concentration against HIV cytopathic effects); for TI50 (IC/EC), Therapeutic Index: IC50/EC50
Outline: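 CEM T4 lymphocytes with serial half-log10 compound dilutions were infected with HIV-1 and incubated 6 days at 37° in 5% CO2. Cell protection from cytolysis was quantified by XTT formazan absorbance, with microscopic confirmation, against uninfected drug-treated toxicity controls.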

[2] = tested on: T4 lymphocytes (CEM cell line); experiment: Cell growth / toxicity control in uninfected T4 lymphocytes (CEM), XTT-formazan; format: cell-based; conditions: for IC50: approximate values
Outline: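 Uninfected CEM T4 lymphocytes received compound in half-log10 dilutions (1:200 final dilution of DMSO solution) as toxicity control alongside HIV-1-infected cultures. After 6 days at 37° in 5% CO2, viability was quantified by XTT formazan absorbance plus microscopy.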

[3] = Human immunodeficiency virus 1, CCRF-CEM
[4] = Human immunodeficiency virus 1, CCRF-CEM, dose 2.00 × 10^-4 Molar, read-out: Percent of Protection
[5] = Human immunodeficiency virus 1, CCRF-CEM, dose 2.00 × 10^-6 Molar, read-out: Percent of Protection
[6] = Human immunodeficiency virus 1, CCRF-CEM, dose 2.00 × 10^-7 Molar, read-out: Percent of Protection
[7] = Human immunodeficiency virus 1, CCRF-CEM, dose 6.34 × 10^-7 Molar, read-out: Percent of Protection
[8] = Human immunodeficiency virus 1, Lymphocyte, dose 2.00 × 10^-4 Molar, read-out: Percent of Control, Infected
[9] = Human immunodeficiency virus 1, Lymphocyte, dose 2.00 × 10^-5 Molar, read-out: Percent of Control, Infected
[10] = Human immunodeficiency virus 1, Lymphocyte, dose 2.00 × 10^-6 Molar, read-out: Percent of Control, Infected
[11] = Human immunodeficiency virus 1, Lymphocyte, dose 2.00 × 10^-7 Molar, read-out: Percent of Control, Infected
[12] = Human immunodeficiency virus 1, Lymphocyte, dose 6.33 × 10^-6 Molar, read-out: Percent of Control, Infected
[13] = Human immunodeficiency virus 1, Lymphocyte, dose 6.34 × 10^-7 Molar, read-out: Percent of Control, Infected
[14] = Human immunodeficiency virus 1, Lymphocyte, dose 6.35 × 10^-8 Molar, read-out: Percent of Control, Infected
[15] = Homo sapiens, CCRF-CEM, dose 2.00 × 10^-4 Molar, read-out: Percent of Control, Uninfected
[16] = Homo sapiens, CCRF-CEM, dose 2.00 × 10^-5 Molar, read-out: Percent of Control, Uninfected
[17] = Homo sapiens, CCRF-CEM, dose 2.00 × 10^-6 Molar, read-out: Percent of Control, Uninfected
[18] = Homo sapiens, CCRF-CEM, dose 2.00 × 10^-7 Molar, read-out: Percent of Control, Uninfected
[19] = Homo sapiens, CCRF-CEM, dose 6.33 × 10^-6 Molar, read-out: Percent of Control, Uninfected
[20] = Homo sapiens, CCRF-CEM, dose 6.34 × 10^-7 Molar, read-out: Percent of Control, Uninfected
[21] = Homo sapiens, CCRF-CEM, dose 6.35 × 10^-8 Molar, read-out: Percent of Control, Uninfected

In the case of CN(c1ccccc1)S(=O)(=O)c1cccc([N+](=O)[O-])c1 [Compound 14, N-(3-nitrophenylsulfonyl)-N-methylaniline], the EC50 [1, 3] is reported as 42.5 µM, the inhibition at 200 µM [1, 4] is reported as 5.28% and the inhibition at 2 µM [1, 5] is reported as -6.93%. The inhibition at 0.2 µM [1, 6] was -10.9%, the inhibition at 63.3 µM ([1]; Human immunodeficiency virus 1, CCRF-CEM, dose 6.33 × 10^-5 Molar, read-out: Percent of Protection) was 78.3% and the inhibition at 0.634 µM [1, 7] was -13.4%. It also gave an inhibition at 20 µM ([1]; Human immunodeficiency virus 1, CCRF-CEM, read-out: Percent of Protection, dose 2.00 × 10^-5 Molar) of -3.74%, an inhibition at 6.33 µM ([1]; Human immunodeficiency virus 1, CCRF-CEM, read-out: Percent of Protection, dose 6.33 × 10^-6 Molar) of -3.87% and an inhibition at 0.0635 µM ([1]; Human immunodeficiency virus 1, CCRF-CEM, read-out: Percent of Protection, dose 6.35 × 10^-8 Molar) of -11.1%. The activity at 200 µM [1, 8] was 17.6%, the activity at 20 µM [1, 9] was 9.75% and the activity at 2 µM [1, 10] was 6.97%. The activity at 0.2 µM [1, 11] was 3.54%, the activity at 63.3 µM ([1]; Human immunodeficiency virus 1, Lymphocyte, dose 6.33 × 10^-5 Molar, read-out: Percent of Control, Infected) was 81.1% and the activity at 6.33 µM [1, 12] was 16.4%. The activity at 0.634 µM [1, 13] was 1.34%, the activity at 0.0635 µM [1, 14] was 3.37% and the “TI50 (IC/EC), Therapeutic Index” value [1] was 3.34 × 10^0. For the same compound, the IC50 ([2]; Homo sapiens, CCRF-CEM, 144 h, read-out: IC50 (50% inhibitory concentration for cell growth), uninfected CEM cells, 6 days, XTT) was 142 µM, the activity at 200 µM [2, 15] was 41.5% and the activity at 20 µM [2, 16] was 83.8%. For the same compound, the activity at 2 µM [2, 17] was 87.2%, the activity at 0.2 µM [2, 18] was 93.2% and the activity at 63.3 µM ([2]; Homo sapiens, CCRF-CEM, dose 6.33 × 10^-5 Molar, read-out: Percent of Control, Uninfected) was 70.2%. For the same compound, the activity at 6.33 µM [2, 19] was 81.3%, the activity at 0.634 µM [2, 20] was 87.8% and the activity at 0.0635 µM [2, 21] was 94.8%.

CNc1ccccc1S(=O)(=O)c1ccccc1[N+](=O)[O-] [Example 22, 2-(2-nitrophenylsulfonyl)-N-methylaniline] was tested, and the “TI50 (IC/EC), Therapeutic Index” value [1] was 1.80 × 10^+2, the “Percent of Control, Infected” value ([1]; dose 2.00 × 10^-4 Molar) was 6.35% and the “Percent of Protection” value ([1]; dose 2.00 × 10^-4 Molar, 200 µM) was 1.42%. The “Percent of Control, Infected” value ([1]; dose 2.00 × 10^-5 Molar) was 43.49%, the “Percent of Protection” value ([1]; dose 2.00 × 10^-5 Molar, 20 µM) was 40.52% and the “Percent of Control, Infected” value ([1]; dose 2.00 × 10^-6 Molar) was 107.31%. The “Percent of Protection” value ([1]; dose 2.00 × 10^-6 Molar, 2 µM) was 107.69%, the “Percent of Control, Infected” value ([1]; dose 2.00 × 10^-7 Molar) was 99.97% and the “Percent of Protection” value ([1]; dose 2.00 × 10^-7 Molar, 0.2 µM) was 99.97%. The “Percent of Control, Infected” value ([1]; dose 6.32 × 10^-5 Molar) was 5.67%, the “Percent of Protection” value ([1]; dose 6.32 × 10^-5 Molar, 63.2 µM) was 0.71% and the “Percent of Control, Infected” value ([1]; dose 6.33 × 10^-6 Molar) was 100.65%. The “Percent of Protection” value ([1]; dose 6.33 × 10^-6 Molar, 6.33 µM) was 100.68%, the “Percent of Control, Infected” value ([1]; dose 6.34 × 10^-7 Molar) was 110.38% and the “Percent of Protection” value ([1]; dose 6.34 × 10^-7 Molar, 0.634 µM) was 110.93%. The “Percent of Control, Infected” value ([1]; dose 6.35 × 10^-8 Molar) was 88.79%, the “Percent of Protection” value ([1]; dose 6.35 × 10^-8 Molar, 0.0635 µM) was 88.20% and the “Percent of Control, Uninfected” value ([2]; dose 2.00 × 10^-4 Molar) was 1.98%. For the same compound, the “Percent of Control, Uninfected” value ([2]; dose 2.00 × 10^-5 Molar) was 36.62%, the “Percent of Control, Uninfected” value ([2]; dose 2.00 × 10^-6 Molar) was 88.74% and the “Percent of Control, Uninfected” value ([2]; dose 2.00 × 10^-7 Molar) was 92.07%. The “Percent of Control, Uninfected” value ([2]; dose 6.32 × 10^-5 Molar) was 15.40%, the “Percent of Control, Uninfected” value ([2]; dose 6.33 × 10^-6 Molar) was 87.28% and the “Percent of Control, Uninfected” value ([2]; dose 6.34 × 10^-7 Molar) was 97.06%. The “Percent of Control, Uninfected” value ([2]; dose 6.35 × 10^-8 Molar) was 96.33% and the IC50 ([2]; uninfected CEM cells, 6 days, XTT, read-out: IC50 (50% inhibitory concentration for cell growth)) was 14.8 µM.

Work on CNc1ccc(Cl)cc1S(=O)(=O)c1ccccc1[N+](=O)[O-] [Compound 72, 2-(2-nitrophenylsulfonyl)4-chloro-N-methylaniline] yielded an EC50 [1, 3] of 0.075 µM, an inhibition at 200 µM [1, 4] of 74% and an inhibition at 20 µM ([1]; Human immunodeficiency virus 1, CCRF-CEM, dose 2.00 × 10^-5 Molar, read-out: Percent of Protection) of 84%. It also gave an inhibition at 2 µM [1, 5] of 93.4%, an inhibition at 0.2 µM [1, 6] of 76% and an inhibition at 63.2 µM ([1]; Human immunodeficiency virus 1, CCRF-CEM, dose 6.32 × 10^-5 Molar, read-out: Percent of Protection) of 85.5%. It also gave an inhibition at 6.33 µM ([1]; Human immunodeficiency virus 1, CCRF-CEM, dose 6.33 × 10^-6 Molar, read-out: Percent of Protection) of 93.3%, an inhibition at 0.634 µM [1, 7] of 102% and an inhibition at 0.0635 µM ([1]; Human immunodeficiency virus 1, CCRF-CEM, dose 6.35 × 10^-8 Molar, read-out: Percent of Protection) of 46.1%. It also gave an activity at 200 µM [1, 8] of 74.5%, an activity at 20 µM [1, 9] of 84.3% and an activity at 2 µM [1, 10] of 93.6%. The activity at 0.2 µM [1, 11] was 76.5%, the activity at 63.2 µM ([1]; Human immunodeficiency virus 1, Lymphocyte, dose 6.32 × 10^-5 Molar, read-out: Percent of Control, Infected) was 85.8% and the activity at 6.33 µM [1, 12] was 93.4%. For the same compound, the activity at 0.634 µM [1, 13] was 102%, the activity at 0.0635 µM [1, 14] was 47.1% and the “TI50 (IC/EC), Therapeutic Index” value [1] was > 2.67 × 10^+3. The IC50 ([2]; Homo sapiens, CCRF-CEM, 144 h, uninfected CEM cells, 6 days, XTT, read-out: IC50 (50% inhibitory concentration for cell growth)) was greater than 200 µM, the activity at 200 µM [2, 15] was 84% and the activity at 20 µM [2, 16] was 93.6%. It also gave an activity at 2 µM [2, 17] of 95.8%, an activity at 0.2 µM [2, 18] of 102% and an activity at 63.2 µM ([2]; Homo sapiens, CCRF-CEM, dose 6.32 × 10^-5 Molar, read-out: Percent of Control, Uninfected) of 97%. The activity at 6.33 µM [2, 19] was 101%, the activity at 0.634 µM [2, 20] was 101% and the activity at 0.0635 µM [2, 21] was 99%.
